According to ChEMBL document CHEMBL1201862, “PubChem BioAssay data set” (2004):
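Cultured in 96-well plates, cells were exposed to test compound for 48 hours across five concentrations. The concentration for 50% growth inhibition is given as GI50.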 The source made the active and inactive calls. No stated cut-off is given here; in the data, active = GI50 up to about 1.1 µM and inactive = higher.

Tests used:
Assay in all cases: NCI-60 cell line screen, 48 h
CCRF-CEM = tested on: CCRF-CEM
HL-60 = tested on: HL-60
HT-29 = tested on: HT-29
IGROV-1 = tested on: IGROV-1
K562 = tested on: K562
M14 = tested on: M14
NCI-H23 = tested on: NCI-H23
OVCAR-3 = tested on: OVCAR-3
OVCAR-8 = tested on: OVCAR-8
SF-539 = tested on: SF-539
SK-MEL-28 = tested on: SK-MEL-28
SK-OV-3 = tested on: SK-OV-3
SN12C = tested on: SN12C
UO-31 = tested on: UO-31
NCI-H522 = tested on: NCI-H522
OVCAR-5 = tested on: OVCAR-5
SF-268 = tested on: SF-268

Measured: GI50

COc1ccc(C2c3cc4c(cc3OC(O)(CO)C2C(=O)O)OCO4)c(OC)c1OC.COc1ccc(C2c3cc4c(cc3OC3(O)COC(=O)C23)OCO4)c(OC)c1OC (configuration not stated)
inactive: CCRF-CEM 39.4 µM | HL-60 45 µM | HT-29 > 100 µM | IGROV-1 > 100 µM | K562 46.2 µM | M14 > 100 µM | NCI-H23 > 100 µM | OVCAR-3 > 100 µM | OVCAR-8 > 100 µM | SF-539 > 100 µM | SK-MEL-28 > 100 µM | SK-OV-3 > 100 µM | SN12C > 100 µM | UO-31 > 100 µM

CCOC(=O)C1=C(C(=O)OCC)C2c3ccccc3C=CN2C(C(=O)OCC)=C(SC)S1 (configuration not stated)
inactive: CCRF-CEM 30.8 µM | HL-60 25.9 µM | HT-29 > 100 µM | IGROV-1 > 100 µM | K562 41.8 µM | M14 89.1 µM | NCI-H23 87.1 µM | NCI-H522 24.4 µM | OVCAR-3 96.2 µM | OVCAR-5 > 100 µM | OVCAR-8 > 100 µM | SF-268 > 100 µM | SF-539 > 100 µM | SK-MEL-28 > 100 µM | SK-OV-3 > 100 µM | SN12C 98.4 µM | UO-31 74.1 µM

Cc1ns/c(=N\C(=S)N(C)C)n1C
inactive: CCRF-CEM > 100 µM | HL-60 > 100 µM | HT-29 > 100 µM | IGROV-1 > 100 µM | K562 > 100 µM | M14 > 100 µM | NCI-H23 > 100 µM | NCI-H522 > 100 µM | OVCAR-5 > 100 µM | OVCAR-8 > 100 µM | SF-268 > 100 µM | SF-539 > 100 µM | SK-MEL-28 > 100 µM | SK-OV-3 > 100 µM | SN12C > 100 µM | UO-31 > 100 µM

CC(C)(C)c1cc(Cc2ccc([N+](C)(C)C)cc2)c(O)c(C(C)(C)C)c1
inactive: CCRF-CEM 12.5 µM | HL-60 2.41 µM | HT-29 15.4 µM | IGROV-1 14.2 µM | K562 9.59 µM | M14 18.2 µM | NCI-H23 17.7 µM | OVCAR-5 22.2 µM | OVCAR-8 17.4 µM | SF-268 15 µM | SF-539 16.5 µM | SK-MEL-28 12.5 µM | SK-OV-3 25.2 µM | SN12C 14.9 µM | UO-31 95.3 µM

Cc1cccc2[n+]1[C@H]1[C@H]([C@@H]3O[C@H]1c1ccccc13)[S+]([O-])N2 (some centres not stated)
inactive: CCRF-CEM 34.8 µM | HL-60 24.4 µM | HT-29 34.4 µM | IGROV-1 32.3 µM | K562 23 µM | NCI-H522 34.8 µM | OVCAR-3 35.9 µM | OVCAR-5 80.7 µM | OVCAR-8 9.98 µM | SF-268 41.1 µM | SF-539 77.6 µM | SK-MEL-28 > 100 µM | SK-OV-3 > 100 µM | UO-31 64.7 µM

CC(=O)N1C/C(=C\c2ccc(N(C)C)cc2)C(=O)/C(=C/c2ccc(N(C)C)cc2)C1
inactive: CCRF-CEM 46.9 µM | HL-60 29.9 µM | HT-29 36.6 µM | IGROV-1 53.2 µM | K562 60 µM | M14 40.1 µM | NCI-H23 > 100 µM | OVCAR-3 20.4 µM | OVCAR-5 > 100 µM | OVCAR-8 84.1 µM | SF-268 66.2 µM | SF-539 27.1 µM | SK-MEL-28 > 100 µM | SK-OV-3 55.7 µM | SN12C 72.3 µM | UO-31 > 100 µM

NCCCNCCSSCCCCS(=O)O
inactive: HL-60 10.4 µM | HT-29 39.8 µM | IGROV-1 > 100 µM | K562 24.3 µM | M14 18.5 µM | NCI-H23 17.7 µM | NCI-H522 13.8 µM | OVCAR-3 19.9 µM | OVCAR-5 55.1 µM | OVCAR-8 38.6 µM | SF-268 18.1 µM | SF-539 80 µM | SK-MEL-28 20.9 µM | SK-OV-3 > 100 µM | SN12C 39.6 µM | UO-31 30.6 µM

CN(C)C(c1ccccc1)C(O)c1ccccc1 (configuration not stated)
inactive: CCRF-CEM > 100 µM | HL-60 > 100 µM | HT-29 > 100 µM | IGROV-1 > 100 µM | K562 > 100 µM | M14 > 100 µM | NCI-H23 > 100 µM | NCI-H522 > 100 µM | OVCAR-3 > 100 µM | SF-268 > 100 µM | SF-539 > 100 µM | SK-MEL-28 > 100 µM | SK-OV-3 > 100 µM | SN12C > 100 µM | UO-31 > 100 µM

CC(Oc1ccc2c(=O)cc(-c3ccccc3)oc2c1)C(=O)O (configuration not stated)
inactive: CCRF-CEM > 100 µM | HL-60 > 100 µM | HT-29 > 100 µM | IGROV-1 > 100 µM | K562 > 100 µM | M14 > 100 µM | NCI-H23 > 100 µM | NCI-H522 > 100 µM | OVCAR-3 > 100 µM | OVCAR-8 > 100 µM | SF-268 > 100 µM | SF-539 > 100 µM | SK-MEL-28 > 100 µM | SK-OV-3 > 100 µM | SN12C > 100 µM | UO-31 > 100 µM

COc1ccc(S(=O)(=O)NNS(C)(=O)=O)cc1
inactive: CCRF-CEM 70 µM | HL-60 > 100 µM | HT-29 > 100 µM | IGROV-1 > 100 µM | K562 > 100 µM | M14 > 100 µM | NCI-H23 > 100 µM | NCI-H522 > 100 µM | OVCAR-8 > 100 µM | SF-268 > 100 µM | SF-539 > 100 µM | SN12C > 100 µM | UO-31 > 100 µM

Cc1ccc(S(=O)(=O)c2ccc(NC(=O)SCCC(=O)O)cc2)cc1
inactive: CCRF-CEM > 100 µM | HL-60 > 100 µM | HT-29 > 100 µM | IGROV-1 5.14 µM | K562 > 100 µM | M14 > 100 µM | NCI-H23 > 100 µM | NCI-H522 > 100 µM | OVCAR-3 > 100 µM | OVCAR-5 > 100 µM | OVCAR-8 > 100 µM | SF-268 > 100 µM | SF-539 > 100 µM | SK-MEL-28 > 100 µM | SN12C > 100 µM | UO-31 > 100 µM

Cc1ccc(C)c(NC(=O)CCc2nnc(S)[nH]2)c1
inactive: CCRF-CEM > 100 µM | HT-29 > 100 µM | IGROV-1 86.7 µM | K562 > 100 µM | M14 > 100 µM | NCI-H23 > 100 µM | NCI-H522 > 100 µM | OVCAR-3 > 100 µM | OVCAR-5 > 100 µM | OVCAR-8 > 100 µM | SF-268 > 100 µM | SF-539 > 100 µM | SK-MEL-28 > 100 µM | SK-OV-3 > 100 µM | SN12C > 100 µM | UO-31 > 100 µM

Cn1ncc2c(c1=O)Nc1ccccc1S2(=O)=O
inactive: CCRF-CEM 61.1 µM | HT-29 > 100 µM | IGROV-1 > 100 µM | K562 > 100 µM | M14 > 100 µM | NCI-H23 > 100 µM | NCI-H522 > 100 µM | OVCAR-3 > 100 µM | OVCAR-5 > 100 µM | OVCAR-8 > 100 µM | SF-268 > 100 µM | SF-539 21.6 µM | SK-MEL-28 > 100 µM | SK-OV-3 > 100 µM | SN12C > 100 µM | UO-31 > 100 µM

Cc1cccc(C)c1NC(=O)C(=O)CC(=O)c1cccc([N+](=O)[O-])c1
inactive: CCRF-CEM > 100 µM | HL-60 > 100 µM | HT-29 > 100 µM | IGROV-1 > 100 µM | K562 > 100 µM | M14 > 100 µM | NCI-H23 > 100 µM | NCI-H522 > 100 µM | OVCAR-3 > 100 µM | OVCAR-5 > 100 µM | OVCAR-8 > 100 µM | SF-268 > 100 µM | SF-539 > 100 µM | SK-MEL-28 > 100 µM | SN12C > 100 µM | UO-31 > 100 µM

O=C(N/N=C(/c1nc2ccc(Cl)cc2[nH]c1=O)C(O)c1ccc(Cl)cc1Cl)c1ccncc1 (configuration not stated)
inactive: CCRF-CEM > 100 µM | HL-60 > 100 µM | HT-29 > 100 µM | IGROV-1 > 100 µM | K562 > 100 µM | M14 > 100 µM | NCI-H23 > 100 µM | OVCAR-3 > 100 µM | OVCAR-5 > 100 µM | OVCAR-8 > 100 µM | SF-268 > 100 µM | SF-539 > 100 µM | SK-MEL-28 > 100 µM | SK-OV-3 > 100 µM | UO-31 > 100 µM

O=C1/C(=C/c2ccc(Cl)cc2)CNC/C1=C\c1ccc(Cl)cc1
inactive: IGROV-1 2.17 µM | M14 1.89 µM | NCI-H23 1.95 µM | NCI-H522 2.02 µM | OVCAR-3 1.86 µM | OVCAR-8 3.6 µM | SF-539 1.77 µM | SK-MEL-28 1.82 µM | SK-OV-3 10.8 µM | SN12C 2.67 µM

NC(=S)N/N=C(\C(=O)Nc1cccc([N+](=O)[O-])c1)c1nc2ccc([N+](=O)[O-])cc2nc1O
inactive: CCRF-CEM 34.8 µM | HL-60 19.9 µM | HT-29 > 100 µM | IGROV-1 > 100 µM | K562 89.5 µM | M14 88.9 µM | NCI-H23 > 100 µM | NCI-H522 3.85 µM | OVCAR-5 > 100 µM | OVCAR-8 > 100 µM | SF-268 > 100 µM | SF-539 63.1 µM | SK-MEL-28 > 100 µM | SK-OV-3 > 100 µM | UO-31 > 100 µM

COc1ccc([C@@H]2OC(=O)C3C2C(=O)O[C@H]3c2ccc(OC)c(OC)c2)cc1OC (some centres not stated)
inactive: CCRF-CEM > 100 µM | HL-60 > 100 µM | HT-29 > 100 µM | IGROV-1 > 100 µM | K562 > 100 µM | M14 > 100 µM | NCI-H23 > 100 µM | NCI-H522 > 100 µM | OVCAR-3 > 100 µM | OVCAR-8 > 100 µM | SF-268 > 100 µM | SF-539 > 100 µM | SK-MEL-28 > 100 µM | SK-OV-3 > 100 µM | SN12C > 100 µM | UO-31 > 100 µM
